Results published in US11773096B2, “Small-molecule PI5P4K alpha/beta inhibitors and methods of treatment using same” (YALE UNIVERSITY, priority 2018, dated 2023).
Entries after “also recorded” stand apart in the source; their conditions may differ.

Columns and labels:
AMPK = test: Western blot of ACC phosphorylation by AMPK in myotubes (FIG. 3F); assay type: cell-based
Experimental: (§1) After wash with cold DPBS buffer, cells were lysed in RIPA buffer that contained 50 mM Tris-HCl pH 8.0, 150 mM NaCl, 1 mM EDTA, 1 mM EGTA, 1% NP-40, 0.5% sodium deoxycholate, 0.1% SDS, and protease and phosphatase inhibitor cocktails (Roche). Total protein concentrations were measured using a BCA assay (Thermo scientific). Cell lysate (about 80 μg protein) was resolved by SDS-PAGE and blotted onto PVDF membranes. The membranes were probed overnight at 4° C. with appropriate primary antibodies (Cell Signaling Technology) and incubated with secondary fluorescent antibodies (LI-COR Biosciences) for 1 hr at room temperature before imaging by an Odyssey CLx system.

PI5P4Kα [1] = target: T1, PI5P4Kα (Homo sapiens, UniProt P48426); test: PI5P4Kα kinase assay, 32P-labelled PI(4,5)P2 product resolved by TLC
T1 sequence (P48426 1-406): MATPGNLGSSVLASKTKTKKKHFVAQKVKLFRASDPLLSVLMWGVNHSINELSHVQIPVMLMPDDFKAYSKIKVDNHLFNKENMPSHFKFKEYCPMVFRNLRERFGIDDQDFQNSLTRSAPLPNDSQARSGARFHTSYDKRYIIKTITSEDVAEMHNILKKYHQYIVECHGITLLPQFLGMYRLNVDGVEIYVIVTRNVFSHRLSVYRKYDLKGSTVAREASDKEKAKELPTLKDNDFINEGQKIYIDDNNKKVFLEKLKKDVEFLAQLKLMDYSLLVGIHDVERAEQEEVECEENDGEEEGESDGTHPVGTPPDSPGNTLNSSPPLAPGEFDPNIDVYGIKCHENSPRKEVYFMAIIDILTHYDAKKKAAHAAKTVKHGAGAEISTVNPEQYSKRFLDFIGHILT
Experimental: (§2) Within each well, 10 μl final reaction mixture contains 100 μM PI(5)P, 2 μg/ml PI5P4Kα, 10 μM ATP (in FIG. 1B, ATP concentration varied from 10 μM to 100 μM), 10 mM MgCl2, 0.1% CHAPS and 20 mM HEPES pH 7.3. […] Kinase assay based on PI(4,5)P2 (product) detection was carried out in a 50 μl assay mixture containing 40 μM PI(5)P, 0.4 μg/ml PI5P4Kα, 20 μM ATP (unless otherwise stated), 10 mM MgCl2, 20 mM HEPES pH 7.3, and 10 mCi [γ-^32P]-ATP for 1 h at RT. […] The reaction was terminated by 5 μl 12N HCl. After termination, 175 μl PBS buffer and 380 μl methanol/chloroform mix (1:1, v/v) containing 10 μg/ml bovine brain extract (type I; Folch Fraction I; Sigma Aldrich) were added. The lower organic phase, containing the extracted lipids, was collected and dried under vacuum. The dried lipids were re-suspended in 25 μl methanol/chloroform mix (2:1, v/v), and separated by thin-layer chromatography (TLC). For TLC, heat activated 1% potassium oxalate-coated silica gel 60 plates were used (20 cm×20 cm, Merck), and the running solvent contained water, acetic acid, methanol, acetone, and chloroform (3:32:24:30:64 mix by volume). Radiolabeled lipid product was quantified with a phosphor imager (Bio-Rad Molecular Imager FX). […] The inhibitor was usually incubated with the enzyme at RT for 20 min before the reaction was initiated.

PI5P4Kβ = target: T2, PI5P4Kβ (Homo sapiens, UniProt P78356); test: PI5P4Kβ kinase assay, 32P-labelled PI(4,5)P2 product resolved by TLC
T2 sequence (P78356 1-416): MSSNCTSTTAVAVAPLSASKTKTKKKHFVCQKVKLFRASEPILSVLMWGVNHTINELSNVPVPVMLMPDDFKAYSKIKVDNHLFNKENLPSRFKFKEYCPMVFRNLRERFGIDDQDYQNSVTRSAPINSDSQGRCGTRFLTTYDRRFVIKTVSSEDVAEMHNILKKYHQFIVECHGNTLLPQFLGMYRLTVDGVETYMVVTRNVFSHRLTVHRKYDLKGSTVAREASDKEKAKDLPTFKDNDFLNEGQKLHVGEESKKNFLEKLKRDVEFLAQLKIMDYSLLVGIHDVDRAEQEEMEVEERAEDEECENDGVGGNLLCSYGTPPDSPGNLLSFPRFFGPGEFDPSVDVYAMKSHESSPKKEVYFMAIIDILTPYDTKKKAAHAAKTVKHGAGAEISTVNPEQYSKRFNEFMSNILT
Experimental: as §2

PI5P4Kα [2] = target: T1, PI5P4Kα; test: Competitive fluorescent binding assay with TNP-ATP; design: made in house; conditions: displacement of 10 μM TNP-ATP from 6.8 μM PI5P4Kα
PI5P4Kα [3] = target: T1, PI5P4Kα; test: PI5P4Kα in vitro kinase assay based on ADP detection (ADP-Glo), kinetic studies; assay type: biochemical; design: made in house
Experimental: Lipid vesicles [2:1 mixture of DPPS and PI(5)P] were prepared by sonication and extrusion in a buffer containing 0.1% CHAPS, 20 mM HEPES pH 7.3, 200 mM NaCl, 20 mM MgCl2, aliquoted, and stored at −80° C. Immediately before assay, thawed lipid suspension was sonicated and extruded again, and mixed with PI5P4Kα freshly purified in the same buffer. […] 20 nl of library compound (10 mM DMSO solution) was transferred to the well by an Aquarius system (Tecan). The plates were shaken for 30 s. 1 μl ATP solution was then added to initiate the reaction (final concentrations: PI(5)P 100 μM; lipid kinase 2 μg/ml; ATP 40 μM; library compound 20 μM). After incubating at RT in the dark for 1 h, 5 μl ADP-Glom reagent (Promega) was added to stop the reaction. After 40 min further incubation, 10 μl Kinase Detection reagent (Promega) was added. After 30 min, the luminescence was measured with an EnVision Multimode Plate Reader.
In vitro kinase assay based on ADP (product) detection was performed similarly in a white solid-bottom 96-well plate (Corning 3600). Within each well, 10 μl final reaction mixture contains 100 μM PI(5)P, 2 μg/ml PI5P4Kα, 10 μM ATP (in FIG. 1B, ATP concentration varied from 10 μM to 100 μM), 10 mM MgCl2, 0.1% CHAPS and 20 mM HEPES pH 7.3. After reaction, 10 μl ADP-Glo™ reagent and 20 μl Kinase Detection reagent were used for luminescence reading. […]

C2Cl2 myotubes = test: Immunoblot analysis of signaling in C2Cl2 myotubes; assay type: cell-based, mouse; conditions: FIG. 3E
Experimental: BT-474 and MCF7 breast cancer cells, C2Cl2 mouse myoblast cells, and HEK 293T cells were maintained in high-glucose DMEM medium containing 10% FBS. L6 rat myoblast cells were maintained in α-MEM medium containing 10% FBS. For differentiation into myotubes, C2Cl2 cells were kept in DMEM medium containing 2% horse serum for 5 days, and L6 cells were kept in α-MEM medium containing 2% FBS for 7 days. Amino-acid-free DMEM medium was prepared using powder from USBio, and MEM amino acids solution was from Gibco. Media were all supplemented with 100 U/ml penicillin/streptomycin. Cell lines were purchased from ATCC.
as §1

L6 myotubes = test: 2-deoxyglucose uptake; assay type: cell-based, rat; conditions: overnight treatment with 20 μM 7a or 1 mM metformin
Experimental: To measure 2-deoxyglucose (2-DG) uptake, L6 myotubes were treated with compound or DMSO control overnight in the absence of serum in α-MEM. Following treatment, cells were washed twice with KRH buffer (50 mM HEPES pH 7.4, 137 mM NaCl, 4.7 mM KCl, 1.85 mM CaCl2, 1.3 mM MgSO4) containing 0.1% BSA. Residual wash buffer was removed by aspiration. Cells were then incubated for 10 min at 37° C. in a KRH buffer containing 0.1% BSA, 5 mM unlabeled 2-DG and 2 μCi/ml [1,2-^3H(N)]-2-deoxy-D-glucose (PerkinElmer). The uptake was terminated by washing four times with ice-cold KRH buffer containing 0.1% BSA. Nonspecific 2-DG uptake into cells was determined in the presence of 10 μM cytochalasin B, which inhibits glucose transporters, and subtracted. The cells were lysed with 0.05 M NaOH for 2 hrs at 37° C. 10 μl cell lysate was used to quantify protein concentration by BCA assay. The remaining sample was transferred to a scintillation vial containing 3 ml Opti-Fluor liquid scintillation cocktail (PerkinElmer), and radioactivity was determined using a Beckman Coulter LS 6500 scintillation system and normalized against protein concentration.

myotubes = test: Glucose consumption and lactate production in myotube culture media; assay type: cell-based
Experimental: To measure glucose consumption and lactate production, a total of 1×10^5 cells were seeded into each well of a 12-well plate and cultured in the presence of compound for 48 hrs. The culture media were collected and deproteinized by centrifugation using an Amicon Ultra centrifugal filter (3 kDa cut-off), while cells were lysed and used for protein concentration determination by BCA assay. The media were assayed immediately for glucose and lactate levels using colorimetric assay kits from BioVision following the manufacturer's protocols. The values were normalized against protein concentration. All measurements were made in triplicate.

With `CN1C(=O)[C@@H](CC2CCCCC2)N(C2CCCC2)c2nc(Nc3cc(Cl)c(O)c(Cl)c3)ncc21` [7b, (R)-7-(cyclohexylmethyl)-8-cyclopentyl-2-((3,5-dichloro-4-hydroxyphenyl)amino)-5-methyl-7,8-dihydropteridin-6(5H)-one] the “ACC phosphorylation / AMPK activation” value (AMPK) was “activated; also recorded: enhanced”, the “potency/affinity for PI5P4Kα in vitro” value (PI5P4Kα [1]) was “weaken the affinity” and the “potency/affinity for PI5P4Kβ in vitro” value (PI5P4Kβ) was “no effect”. For the same compound, the “selectivity between PI5P4Kα and PI5P4Kβ” value (PI5P4Kβ) was “more specific for PI5P4Kβ; also recorded: more potent against PI5P4Kβ than PI5P4Kα”.
`CN1C(=O)[C@@H](Cc2ccccn2)N(C2CCCC2)c2nc(Nc3cc(Cl)c(O)c(Cl)c3)ncc21` [7e, (R)-8-cyclopentyl-2-((3,5-dichloro-4-hydroxyphenyl)amino)-7-(pyridine-2-ylmethyl)-5-methyl-7,8-dihydropteridin-6(5H)-one] gave a Ki (PI5P4Kα [1]) of 20 to 60 nM and a Ki (PI5P4Kβ) of 20 to 60 nM.
`CN1C(=O)[C@@H](CC2CCCC2)N(C2CCCC2)c2nc(Nc3ccc4[nH]nnc4c3)ncc21` [7f, (R)-2-((1H-benzo[d][1,2,3]triazol-5-yl)amino)-8-cyclopentyl-7-(cyclopentylmethyl)-5-methyl-7,8-dihydropteridin-6(5H)-one] gave a Ki (PI5P4Kα [1]) of 200 to 700 nM and a Ki (PI5P4Kβ) of 80 to 230 nM.
Work on `CN1C(=O)[C@@H](CC2CCCC2)N(C2CCCC2)c2nc(Nc3ncc(C(=O)O)s3)ncc21` [7g, (R)-2-((8-cyclopentyl-7-(cyclopentylmethyl)-5-methyl-6-oxo-5,6,7,8-tetrahydropteridin-2-yl)amino)thiazole-5-carboxylic acid] yielded a Ki (PI5P4Kα [1]) of 30 to 90 nM and a Ki (PI5P4Kβ) of 100 to 280 nM.
With `CN1C(=O)[C@@H](CC2CCCC2)N(C2CCCC2)c2nc(Nc3csc(C(=O)O)c3)ncc21` [7h, (R)-4-((8-cyclopentyl-7-(cyclopentylmethyl)-5-methyl-6-oxo-5,6,7,8-tetrahydropteridin-2-yl)amino)thiophene-2-carboxylic acid] the Ki (PI5P4Kα [1]) was 110 to 220 nM and the Ki (PI5P4Kβ) was 80 to 160 nM.
Compound `CN1C(=O)[C@@H](CC2CCCC2)N(C2CCCC2)c2nc(Nc3cc(F)c(C(=O)O)c(F)c3)ncc21` [7i, (R)-4-((8-cyclopentyl-7-(cyclopentylmethyl)-5-methyl-6-oxo-5,6,7,8-tetrahydropteridin-2-yl)amino)-2,6-difluorobenzoic acid] has a Ki (PI5P4Kα [1]) of 55 to 110 nM and a Ki (PI5P4Kβ) of 75 to 150 nM.
Compound `CN1C(=O)[C@@H](Cc2ccccn2)N(C2CCCC2)c2nc(Nc3ncc(C(=O)O)s3)ncc21` [7j, (R)-2-((8-cyclopentyl-5-methyl-6-oxo-7-(pyridin-2-ylmethyl)-5,6,7,8-tetrahydropteridin-2-yl)amino)thiazole-5-carboxylic acid] has a Ki (PI5P4Kα [1]) of 50 to 100 nM and a Ki (PI5P4Kβ) of 400 to 800 nM.
`CN1C(=O)[C@@H](Cc2ccccn2)N(C2CCCC2)c2nc(Nc3ccc4[nH]nnc4c3)ncc21` [7k, (R)-2-((1H-benzo[d][1,2,3]triazol-5-yl)amino)-8-cyclopentyl-5-methyl-7-(pyridin-2-ylmethyl)-7,8-dihydropteridin-6(5H)-one] showed a Ki (PI5P4Kβ) of 100 to 200 nM.
In the case of `CC[C@@H]1C(=O)N(C)c2cnc(Nc3ccc(C(=O)NC4CCN(C)CC4)cc3OC)nc2N1C1CCCC1` [BI-2536], the “ACC phosphorylation / AMPK activation” value (AMPK) is reported as “did not increase; also recorded: did not induce”.
In the case of `CC(C)CCN1c2nc(Nc3cc(F)c(O)c(F)c3)ncc2N(C)C(=O)C1C` (stereo not shown) [BI-D1870], the Kd (PI5P4Kα [2]) is reported as ~1300 nM, the “ACC phosphorylation / AMPK activation” value (AMPK) is reported as “did not increase; also recorded: did not induce” and the Ki (PI5P4Kα [3]; competitive with ATP) is reported as ~1000 nM.
For `CS(=O)(=O)N1CCN(Cc2cc3nc(-c4cccc5[nH]ncc45)nc(N4CCOCC4)c3s2)CC1` [GDC-0941, reference compound], the “insulin-induced Akt phosphorylation at Ser-473” value (C2Cl2 myotubes) was “eliminated”.
`C[C@@H]1COCCN1c1cc(=O)n2c(n1)N(Cc1cncc(Cl)c1)[C@H](C(F)(F)F)CC2` [SAR405, reference compound] was tested, and the “mTORC1 activation by amino acids” value (C2Cl2 myotubes) was “prevented”.
With `CN(C)C(=N)N=C(N)N` [metformin, reference compound] the “rate of glucose uptake (labeled 2-deoxyglucose)” value (L6 myotubes) was “doubled”, the “molar fraction of consumed glucose used for lactate fermentation” value (myotubes; 48 hours) was 41% and the “lactate accumulated in the media” value (myotubes; 48 hours after treatment) was 8.6 mM. For the same compound, the “reduction of glucose concentration in the media” value (myotubes; 48 hours after treatment) was 10.6 mM.
With `CC[C@@H]1C(=O)N(C)c2cnc(Nc3ccc(C(=O)N[C@H]4CC[C@H](N5CCN(CC6CC6)CC5)CC4)cc3OC)nc2N1C(C)C` [volasertib] the “Kis for PI5P4Kα compared with BI-D1870” value (PI5P4Kα [3]; ATP 10 μM) was “slightly higher”.
